Where two headings read alike, the source gives them in different places.
Key:
[1] = test system: rainbow trout (Oncorhynchus mykiss); experiment: Contribution of tissues to fish body burden; assay type: in vivo; conditions: for % contribution to body burden, Gills / % contribution to body burden, Liver / % contribution to body burden, Mucus / % contribution to body burden, Muscle / % contribution to body burden, Skin / Share of body burden present in gills and mucus / Share of body burden in interior tissues (blood, liver, and muscle): in vivo; for Contribution of Other tissue (all apart from blood, liver, gills and skin; muscle concentration assumed) to body burden: fraction
Text: To calculate the quantity of the test chemical in the different tissues, the amount of each tissue in the fish was estimated and multiplied by the concentration in that tissue. The test chemical quantities in the different tissues were then summed to give the body burden in each fish. The total weight of the fish and the weight of the liver and gills were available from the dissection (Table S16). For skin and mucus, the estimated outer surface area of the fish was used. We note that the distinction between mucus and skin is an operational one determined by the extraction method; mucus can be viewed as a more readily extracted fraction of the test chemical residues at the fish surface. The volume of blood was taken as 0.0495 mL g^–1 fish.[30] The remaining tissue (difference between the weight of the whole fish and the weight of liver, gills, skin, and blood) was assumed to have the concentration measured in the muscle. The contribution of the different tissues to the body burden is given for each fish in Table S17, and the average contribution across all fish is plotted in Figure 1. All of the tissues, with the exception of blood, contribute at least 10% of the body burden for at least half of the test chemicals. There is no consistent negative correlation between the fraction of chemical associated with blood, muscle, and liver (tissues where the residue originates entirely from systemic uptake) and alkyl chain length (a measure of hydrophobicity). Thus, although adsorption to fish surfaces appears to play a significant role, its contribution to body burden cannot be simply predicted from surfactant hydrophobicity. In the following, we examine uptake in individual tissues.

[2] = test system: rainbow trout (Oncorhynchus mykiss); experiment: Surface area-normalized mucus-water and gill-water distribution coefficients; conditions: in vivo
Experimental: For each mixture, the syringe pump was started in an aquarium containing no fish. After 16 h, to allow the concentrations to stabilize, 12 rainbow trout were added. After 7 d of exposure, the fish in the exposure aquaria as well as several unexposed (control) fish were sacrificed. Following stunning, blood was collected with a heparinized syringe from the caudal vein into a 2 mL Eppendorf tube. The fish were weighed and photographed, and the length was measured. The outer surface area of the fish was estimated from the fish weight according to O’Shea et al.[27] [drawing 1] 1
The gill surface area was estimated from the fish weight according to the equation specific for O. mykiss from a report by Hughes,[28] taken from ref ([29]) [drawing 2] 2
Because the mass of extracted mucus was not determined, the concentrations in mucus were normalized to the estimated fish’s total surface area (eq 1) excluding the head, which was not rinsed.
Surface area-normalized gill–water distribution coefficients (DG–W) were calculated from the average concentrations measured in gills and water, and a calculated gill surface based on rainbow trout specific scaling factors (eq 2). […] Unlike the skin, the gills were not rinsed with methanol, so the gill samples included gill mucus.

Salmo trutta = test system: Salmo trutta; set-up: method as in REACH dossiers (European Chemicals Agency); conditions: ref REACH dossiers (European Chemicals Agency); cited from earlier work
Danio rerio = conditions: ref REACH dossiers (European Chemicals Agency); cited from earlier work
[3] = cited from earlier work
[4] = cited from earlier work; remark: listed apart in the source
[5] = test system: bluegill fish (Lepomis macrochirus); conditions: cited from earlier work
killifish = conditions: cited from earlier work
[6] = secondary amines, no reference given

| SMILES | % contribution to body burden, Gills [1] [%] | % contribution to body burden, Liver [1] [%] | % contribution to body burden, Mucus [1] [%] | % contribution to body burden, Muscle [1] [%] | % contribution to body burden, Skin [1] [%] | Gill-water distribution coefficient (DG-W) [2] [mLcm-2] | Mucus-water distribution coefficient (DMuc-W) [2] [mL cm-2] | other results |
| --- | --- | --- | --- | --- | --- | --- | --- | --- |
| CCCCCCCCCC[N+](C)(C)C [Q10, N,N,N-trimethyl-1-decylammonium] | 23 | 3 | 11 | 37 | 24 | 0.0064 | 0.0035 | DG–W factor lower than tertiary amine of the same alkyl chain length [2]: 300; DMuc–W times lower than tertiary amine with the corresponding alkyl chain length [2]: 360 |
| CCCCCCCCCCCCCC[N+](C)(C)C [Q14, N,N,N-trimethyl-1-tetradecylammonium] | 70 | 5 | 10 | 7 | 8 | 9.5 | 1.40 | Share of body burden present in gills and mucus [1]: at least 50%; DG–W factor lower than tertiary amine of the same alkyl chain length [2]: 18; DMuc–W higher than Q10 [2]: 2.6 log units; DMuc–W times lower than tertiary amine with the corresponding alkyl chain length [2]: 37 |
| CCCCCCCCCCCCNC [S12, N-methyldodecylamine] | 20 | 17 | 7 | 32 | 21 | 13.3 | 5.4 | Share of body burden in interior tissues (blood, liver, and muscle) [1]: more than half |
| CCCCCCCCCCCCCCCCNC [S16, N-methylhexadecylamine] | 53 | 12 | 4 | 16 | 14 | 300 | 27 | Share of body burden present in gills and mucus [1]: at least 50% |
| CCCCCCCCCCN(C)C [T10, N,N-dimethyldecylamine] | 14 | 18 | 8 | 38 | 18 | 1.95 | 1.28 | 96h-LC50 (Salmo trutta): 1.8 mg/L; Contribution of Other tissue (all apart from blood, liver, gills and skin; muscle concentration assumed) to body burden ([1]; Fish #1): 0.54; Contribution of Other tissue (all apart from blood, liver, gills and skin; muscle concentration assumed) to body burden ([1]; Fish #2): 0.33; Contribution of Other tissue (all apart from blood, liver, gills and skin; muscle concentration assumed) to body burden ([1]; Fish #3): 0.35; Contribution of Other tissue (all apart from blood, liver, gills and skin; muscle concentration assumed) to body burden ([1]; Fish #4): 0.29; Contribution of Other tissue (all apart from blood, liver, gills and skin; muscle concentration assumed) to body burden ([1]; Fish #5): 0.38; Contribution of Other tissue (all apart from blood, liver, gills and skin; muscle concentration assumed) to body burden ([1]; Fish #6): 0.37; Contribution of Other tissue (all apart from blood, liver, gills and skin; muscle concentration assumed) to body burden ([1]; Mean): 0.38; Share of body burden in interior tissues (blood, liver, and muscle) [1]: more than half; 96h-LC50 (Danio rerio): 1.13 mg/L |
| CCCCCCCCCCCCCCN(C)C [T14, N,N-dimethyltetradecylamine] | 34 | 7 | 11 | 22 | 24 | 150 | 51 | 96h-LC50 (Salmo trutta): 0.18 mg/L; Contribution of Other tissue (all apart from blood, liver, gills and skin; muscle concentration assumed) to body burden ([1]; Fish #1): 0.22; Contribution of Other tissue (all apart from blood, liver, gills and skin; muscle concentration assumed) to body burden ([1]; Fish #2): 0.21; Contribution of Other tissue (all apart from blood, liver, gills and skin; muscle concentration assumed) to body burden ([1]; Fish #3): 0.24; Contribution of Other tissue (all apart from blood, liver, gills and skin; muscle concentration assumed) to body burden ([1]; Fish #4): 0.21; Contribution of Other tissue (all apart from blood, liver, gills and skin; muscle concentration assumed) to body burden ([1]; Fish #5): 0.20; Contribution of Other tissue (all apart from blood, liver, gills and skin; muscle concentration assumed) to body burden ([1]; Fish #6): 0.24; Contribution of Other tissue (all apart from blood, liver, gills and skin; muscle concentration assumed) to body burden ([1]; Mean): 0.22; 96h-LC50 (Danio rerio): 0.35 mg/L |
| CN(C)CCC=C1c2ccccc2CCc2ccccc21 [amitriptyline, reference compound] |  |  |  |  |  |  |  | log DMW [3]: 3.9; pKa [4]: […] |
| CCCCCCCCCC[N+](C)(C)CCCCCCCCCC [didecyldimethylammonium chloride] |  |  |  |  |  |  |  | bioconcentration factor (BCF) ([5]; 14C-labeled): 81 L kg^–1; 14C residues in the skin, times higher than in edible tissues [5]: 2–6 |
| COc1ccc([C@@H]2Sc3ccccc3N(CCN(C)C)C(=O)[C@@H]2OC(C)=O)cc1 [diltiazem] |  |  |  |  |  |  |  | Vd, plasma concentration based (killifish): 0.19–0.28 L kg^–1 |
| CNCCC(Oc1ccc(C(F)(F)F)cc1)c1ccccc1 (centres unmarked) [fluoxetine, reference compound] |  |  |  |  |  |  |  | pKa [4, 6]: > 9.5 |
| CN[C@H]1CC[C@@H](c2ccc(Cl)c(Cl)c2)c2ccccc21 [sertraline, reference compound] |  |  |  |  |  |  |  | log DMW ([3]; membrane–water distribution coefficient): 4.3; pKa [4, 6]: > 9.5 |
